A word on the Km: it is the concentration of substrate that gives half-maximal velocity.

Where two headings read alike, the source gives them in different places.

These results are taken from article PMC4513247 (Molecular pharmacology, 2010).

One data set deals with SERT^WT (Homo sapiens, UniProt P31645). Type of data set: binding.
Another data set has as its system NET. The note with it: NET versus SERT; no reference given; cited from earlier work.
Data set [1] has as its target T1, DAT (Homo sapiens, UniProt Q01959). The note with it: DAT versus SERT; no reference given; cited from earlier work.
Another data set concerns NCCc1c[nH]c2ccc(O)cc12. Description: cells, lysate or membranes. The note with it: other: SERT^WT; [3H]5-HT saturation uptake, HEK293 cells.
Data set [2] concerns the target T1, DAT. In kind it is binding. The note with it: ~10 nM [3H]WIN35,428, fixed concentrations of carbamazepine.
[3] abbreviates: SERT, ~2 nM [3H]imipramine, fixed concentrations of carbamazepine.

SERT^WT, sequence (P31645 whole entry): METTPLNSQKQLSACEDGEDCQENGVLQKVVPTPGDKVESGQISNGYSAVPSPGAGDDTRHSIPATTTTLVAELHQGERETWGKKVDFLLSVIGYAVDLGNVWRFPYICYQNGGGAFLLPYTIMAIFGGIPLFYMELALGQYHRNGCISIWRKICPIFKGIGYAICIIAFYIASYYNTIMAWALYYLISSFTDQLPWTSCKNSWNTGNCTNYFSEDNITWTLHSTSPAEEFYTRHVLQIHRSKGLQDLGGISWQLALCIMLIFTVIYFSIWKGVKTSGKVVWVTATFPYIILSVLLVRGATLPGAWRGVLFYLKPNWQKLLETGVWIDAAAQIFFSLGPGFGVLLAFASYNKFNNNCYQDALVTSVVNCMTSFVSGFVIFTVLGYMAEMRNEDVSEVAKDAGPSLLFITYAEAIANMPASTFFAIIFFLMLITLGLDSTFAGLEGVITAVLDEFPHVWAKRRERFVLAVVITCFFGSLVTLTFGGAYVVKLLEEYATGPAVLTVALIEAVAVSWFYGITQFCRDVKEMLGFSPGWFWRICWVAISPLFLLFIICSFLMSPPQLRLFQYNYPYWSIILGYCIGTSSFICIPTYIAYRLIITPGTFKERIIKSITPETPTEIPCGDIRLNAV
T1 sequence (Q01959 whole entry, species assumed): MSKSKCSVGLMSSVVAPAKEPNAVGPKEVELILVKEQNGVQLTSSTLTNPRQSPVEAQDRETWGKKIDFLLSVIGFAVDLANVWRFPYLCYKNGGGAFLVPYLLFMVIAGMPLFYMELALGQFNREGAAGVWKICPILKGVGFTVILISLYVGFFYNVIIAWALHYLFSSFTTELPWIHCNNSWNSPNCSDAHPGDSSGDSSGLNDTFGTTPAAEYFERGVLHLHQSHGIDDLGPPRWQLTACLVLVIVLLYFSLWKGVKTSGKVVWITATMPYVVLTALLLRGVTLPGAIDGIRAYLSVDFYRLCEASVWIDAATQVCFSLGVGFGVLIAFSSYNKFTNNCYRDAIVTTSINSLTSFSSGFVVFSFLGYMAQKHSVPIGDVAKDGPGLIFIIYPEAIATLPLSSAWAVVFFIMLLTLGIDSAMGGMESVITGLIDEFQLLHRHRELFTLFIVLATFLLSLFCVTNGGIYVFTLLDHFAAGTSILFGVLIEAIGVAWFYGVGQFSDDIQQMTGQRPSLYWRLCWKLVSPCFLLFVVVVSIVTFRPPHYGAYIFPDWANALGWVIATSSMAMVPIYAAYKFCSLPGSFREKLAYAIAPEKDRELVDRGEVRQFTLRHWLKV

Take `CN[C@@H](C)Cc1ccc2c(c1)OCO2` [MDMA, s-(+)-3,4-methylenedioxy-methamphetamine]: on SERT^WT, the “binding together with carbamazepine (Dixon plot of [3H]imipramine binding)” value was “mutually exclusive”. As for `CN(C)CCCN1c2ccccc2CCc2ccccc21` [imipramine], the figures for the “affinity lower than for SERT” value with NET and on DAT [1] were “approximately 10 fold” and ~1000 fold, respectively. `CC(N)Cc1ccc(Cl)cc1` (stereo not shown) [para-chloroamphetamine]: on SERT^WT (setting [3]), the “binding together with carbamazepine (Dixon plot of [3H]imipramine binding)” value was “mutually exclusive”.

As to SERT^WT (Homo sapiens), the Michaelis constant (Km) with NCCc1c[nH]c2ccc(O)cc12 stood at 1.2 ± 0.8 µM. As for ibogaine, the “binding together with carbamazepine (Dixon plot of [3H]WIN35,428 binding)” value at DAT [2] is “intersected”. On SERT^WT (setting [3]), the “binding together with carbamazepine (Dixon plot of [3H]imipramine binding)” value is on record as “intersected”.
